The source of these data is ChEMBL document CHEMBL1154790, “Lorneic acids, trialkyl-substituted aromatic acids from a marine-derived actinomycete” (J Nat Prod, 2009).

For assay [1], the target named is T1, cGMP-specific 3',5'-cyclic phosphodiesterase (Homo sapiens, UniProt O76074). Description: Inhibition of human platelet PDE5 assessed as [3H]cGMP to [3H]GMP conversion pretreated 15 mins before substrate addition measured after 20 mins.
Assay [2] deals with T1, cGMP-specific 3',5'-cyclic phosphodiesterase. The assay is described as follows: Inhibition of human platelet PDE5 assessed as [3H]cGMP to [3H]GMP conversion at 10 uM pretreated 15 mins before substrate addition measured after 20 mins.

Calls of active or inactive are those of the source. The rule behind the calls is not given here.

As to `CCCC/C=C/c1cc(C)ccc1/C=C/CC(=O)O` [LORNEIC ACID A], the half-inhibitory concentration (IC50) in assay [1] turned out to be 12.6 µM. Further, the inhibition entry in assay [2] is “Active”.
Turning to `CCCCCC(O)c1cc(C)ccc1/C=C/CC(=O)O` (stereo not drawn) [LORNEIC ACID B], in assay [1], the IC50 was found to be 87.1 µM.

Broadly, the IC50 is the concentration that inhibits the measured activity by half.
